Data reported in patent US6015820A, “4-Aryl-thio-pyridin-2(1H)-ones, medicines containing them and their uses in the treatment of illnesses linked to HIV” (priority 1995, dated 2000).
“Also recorded” adds a separate entry of the source.

Assays:
[1] = test system: HIV-1 6 type D (primary isolate); test: anti-HIV-1 activity, HIV-1 6 type D (primary isolate)/PBMC; assay type: cell-based; conditions: Human immunodeficiency virus 1, Table 4
Experimental: The virus production was measured by quantifying the activity of the inverse transcriptase associated with viral particles released into the culture supernatant. In short, cells were infected with 100 TCID50 for 30 minutes; after adsorption of the virus, unbound particles were removed by two washings and the cells were cultivated in the presence of different concentrations of the compounds tested for 5 days before determining the viral production. The concentration inhibiting 50% of the viral multiplication (IC50) came from the computer plot of the median effect of the dose effect results (Chou et al. Elsevier Science Publishers, Cambridge U.K. (1985), 19-28).
Thirty two compounds according to the invention were studied for their anti-HIV-1 biological activity. […] This compound was then tested with other colonies and other cell lines (Table 4).

[2] = biological target: inverse transcriptase of HIV-1 (HIV-1 M:B_ARV2/SF2, UniProt P03369); test: inverse transcription with HIV-1 RNA as natural matrix (complementary DNA, gel); assay type: biochemical; conditions: FIG. 10; compound 7c 40-400 nM
Experimental: FIG. 10 illustrates the dose effect of compound 7c on the inhibition of the inverse transcriptase of HIV-1. The expected complementary DNA, 147 nucleotides long, is shown to the left of the gel (well 1). Wells 2 to 5 correspond to decreasing concentrations of compound 7c (well 2: 400 nM, well 3: 300 nM: well 4: 100 nM and well 5: 40 nM).
The pmCG6 plasmid containing the nucleotide fragment 1-4005 of the HIV-1 (pmal) in psP64, under the control of the promoter of the T7 bacteriophage was provided by Dr. J. L. Darlix. A strain of E.coli HB 101 (1035) recA was used for the amplification of the plasmid. After digestion of this clone with Hinc II and transcription in vitro by using the RNA T7 polymerase, RNAs were obtained from the +50 position of the pmal sequence. The transcription was carried out in vitro and the inverse transcription in the manner described by B. Bordier et al. (1992 Nucleic Acids Res. 20, 5999-6006).
All the compounds were dissolved in dimethyl#sulphoxide (DMSO). The test samples were prepared in the presence of the same final concentration of DMSO. IC50 is the concentration required to inhibit the activity of the IT of the recombinant HIV-1 by 50%.

[3] = test system: isolated virion HIV-1LAI; test: infectivity of the isolated virion after treatment with inhibitors (HT4LacZ cells); assay type: cell-based
Experimental: H9 cells chronically infected with HIV-1LAI (10^8 /ml) were cocultivated with MT4 cells (10^8 /ml) for 48 hours in an RMPI medium supplemented by 10% of calf foetal serum (CFS). The cells were then removed by centrifugation and then the supernatant liquid was filtered (0.45 μm) to remove residual cells and cell debris.
After having been incubated with the various inhibitors, the viral supernatants (200 μl) were deposited in the filtering part of a VectaSpin tube (WHATMAN) fitted with an ANAPORE membrane of porosity 0.02 μm. For 10 minutes they were subjected to centrifugation, the acceleration of which reached 6000 g at the filtering membrane. The viral residuums thereby obtained (10-15 μl ) were washed 3 times under the same conditions with 500 μl of RPMI then restored to their initial volumes with RPMI containing 10% of CFS.
The HT4LacZ-1 cells were kept in a DMEM medium (glucose 4.5 g/l) supplemented with 10% of calf foetal serum in the presence of Gentamycin (50 mg/l). These cells stemmed from Hela cells in which had been cloned, on the one hand the gene coding for the human CD4 so as to render them susceptible to infection by the HIV (Chesebro and Wehrly, 1988, J. Virol., 62, 3779-3788), and on the other hand the gene for β-Galactosidase which, placed under the dependent of the LTR of the HIV-1 served as a marker for the viral infection (Rocancourt et al. (1990) J. Virol. 1990 64-6, 2660-2688). When the virus infects such cells after its integration into the cellular genome, the production of the regulatory protein TAT activates the LTR of the HIV. The result is an activation of the gene of β-Galactosidase which leads to its production in the intracellular medium and more particularly in the nucleus. It is this protein that serves as a marker of the infection.
The evening of day 0, the HT4LacZ-1 cells were diluted at the rate of 75000 cells per ml of medium. 100 μl of this suspension was then distributed over a flat bottomed plate with 96 wells and was cultivated overnight at 37° C. (5% of CO2).
The morning of day 1, the supernatant liquid was removed by aspiration. Each well was then complemented with 200 μl of the viral supernatant dilutions to be tested. Each dilution was made in a DMEM medium (glucose 4.5 g/l) supplemented with 10% of CFS. The plates were then placed in an environment at 37° C. in the presence of 5% of CO2.
After 48 hours of culture, the supernatant liquid was aspirated, then each well was washed 3 times in PBS before being complemented with 200 μl of developing buffer (Tris-HCl 50 mM pH=8.5, ONPG 5 mg/ml β-mercapto-ethanol 7 μl/ml Triton×100 0.05%). After 4 hours of incubation at 37° C., the optical density of each well was measured.
The concentration of each of the inhibitors of the IT of the HIV-1 was adjusted to 50 mM in DMSO. The later dilutions were carried out on RPMI 1640. 2 μl of suitable dilutions of each of these inhibitors were added to 198 μl of a freshly unfrozen viral suspension. After 3 hours of incubation at ambient temperature, these suspensions were filtered on 0.02 μ VecraSpin tubes, then washed 3 times with 500 μl of RPMI 1640. The viral residuums were then adjusted to 200 μL with the culture medium (RPMI-10% CFS), then tested with regard to their infectivity on HT4LacZ cells.

With `CCc1c(C)[nH]c(=O)c([N+](=O)[O-])c1Sc1cc(C)cc(C)c1` [Compound 7c, 5-ethyl-6-methyl-3-nitro-4-(3', 5'-dimethylphenyl)thio-pyridin-2(1H)-one] the IC50 [1] was under 0.1 nM, the “inhibition with RNA from HIV-1 as natural matrix” value [2] was “strong inhibition” and the activity at 0.1 µM ([3]; Human immunodeficiency virus 1, 0.1 μM inhibitor, 3 h, 100 TCID50, compared with viral supernatant subjected to same treatments, mean of 1 to 4 experiments, read-out: Activity of the isolated virions after treatment) was 60%. For the same compound, the activity at 1 µM ([3]; Human immunodeficiency virus 1, 1 μM inhibitor, 3 h, 100 TCID50, compared with viral supernatant subjected to same treatments, mean of 1 to 4 experiments, read-out: Activity of the isolated virions after treatment) was 1%, the activity at 10 µM ([3]; Human immunodeficiency virus 1, 10 μM inhibitor, 3 h, 100 TCID50, compared with viral supernatant subjected to same treatments, mean of 1 to 4 experiments, read-out: Activity of the isolated virions after treatment) was 0% and the inhibition in infectivity ([3]; incubation of 45 minutes, preliminary experiments) was “greater than 98%”. For the same compound, the “activity on the isolated virion (in words)” value ([3]; isolated virion) was “truly active on the isolated virion; also recorded: capable, after having penetrated the viral particle, of inhibiting the inverse transcriptase and of suppressing the viral infectivity”.
